# Data from patent US12326385B2, “Cell-permeable fluorogenic fluorophores” (MAX-PLANCK-GESELLSCHAFT ZUR FÖRDERUNG DER WISSENSCHAFTEN E. …, priority 2018, dated 2025).
# Marks after values point to notes of the source that are not given here.
# What was measured:
# [1] = UV-Vis and fluorescence spectroscopy of free dye or probe in buffer or SDS; assay type: physicochemical; conditions: for Φ / ε^SDS: 0.1% SDS in HEPES buffer (pH 7.3); for ε: HEPES buffer (pH 7.3)
# Protocol: UV-Vis and Fluorescence Spectroscopy
# Spectroscopy was performed using 96-well plate (Thermo Fisher) with optical bottom. All measurements were taken at ambient temperature (25±2° C.). Absorption and fluorescence spectra were recorded on Spark® microplate reader (Tecan). Maximum absorption wavelength (λabs), and maximum emission wavelength (λem) were taken in 10 mM HEPES, pH 7.3 buffer unless otherwise noted; reported values for ε are averages (n=3). Normalized spectra are shown for clarity.
# (§1) SDS (10% in 10 mM HEPES) was added with dilution of 100 folds as a control group. Absorbance and fluorescence measurements were performed in 96-well plate (Thermos Fisher) with optical bottom.
# SNAP-Halo-tag = assay: Increase in absorbance and fluorescence on binding to SNAP-HaloTag protein in vitro; assay type: biochemical; conditions: for Φ / ε^protein / λabs / λem: binding with SNAP-Halo-tag; for F/F0: ± s.e.m.
# Protocol: Measurement of Increase in Absorbance and Fluorescence.
# SNAP-HaloTag protein were used as a 85 μM-200 μM solution in 75 mM NaCl, 50 mM TRIS-HCl, pH 7.4 with 50% v/v glycerol (TBS-glycerol). SNAPTag and HaloTag based fluorogenic probes were diluted to 1.0-2.0 μM in 10 mM HEPES, pH 7.3. Then an aliquot of SNAPTag/HaloTag protein (1.5-2.0 equiv) was added and the resulting mixture was incubated until consistent absorbance signal was observed (˜60 min).
# as §1
# [2] = tested on: U2OS FlpIn Halo-SNAP-NLS expressing cells; assay: No-wash live-cell confocal imaging, nuclear versus cytosol signal; assay type: cell-based; conditions: for Fnuc./Fcyt.: average ratio between nuclear signal (U2OS FlpIn Halo-SNAP-NLS expressing cells) and cytosol signal (normal U2OS cell), ± s.e.m.; for intracellular kinetics of labeling relative to control probe: nuclear localized SNAP-tag or HaloTag in U2OS cells
# Text: Self-labeling protein tags such as SNAP-tag and HaloTag are an efficient approach to attach synthetic fluorophores to proteins in living cells. The main challenge when using these tags for live-cell imaging is the low cell permeability of most fluorescent probes used for labeling and high background signal resulting from their unspecific binding. SNAP-tag fusion proteins can be specifically labeled with different fluorophores using appropriate O^6-benzlyguanine derivatives. A 6-TAMRA based probe (150) for SNAP-tag has been previously introduced for live-cell imaging, but its low cell-permeability and lack of fluorogenicity requires the use of high concentrations (5 μM) and repeated washing steps to remove excess and non-specifically bound probe. To address these problem, the inventors coupled fluorophores 132-135 to O^6-benzylguanine to obtain probes 152, 154, 156, and 158. […] The inventors then examined the performance of probes 150, 152, 154, 156, and 158 in live-cell imaging, in which U2OS cells stably expressing a nuclear localized SNAP-Halo fusion protein were co-cultured with regular U2OS cells not expressing any protein tags. […] Furthermore, the kinetics of labeling of nuclear localized SNAP-tag with MaP555-SNAP were much faster than those of control […]. The inventors then prepared the corresponding 6-TAMRA-based probes 151, 153, 155, 157, and 159 for HaloTag. As for SNAP-tag, the probe with the largest enhancement in absorbance (16-fold) and fluorescence intensity (35-fold) in in vitro assays was based on the N,N-dimethylsulfamide derivative 159 (abbreviated as MaP555-Halo in the following). […] The excellent performance of MaP555-SNAP and MaP555-Halo in live-cell imaging experiments support the inventors' assumption that establishing a dynamic equilibrium between the fluorescent zwitterion and the more hydrophobic spirolactam enables the generation of highly cell-permeable and fluorogenic probes for live-cell imaging.
# Generation of U2OS FlpIn Halo-SNAP-NLS Cell Lines
# The Flp-In™ System (ThermoFisher Scientific) was used to generated U2OS FlpIn Halo-SNAP-NLS expressing cells. pcDNA5-FRT-Halo-SNAP-NLS and pOG44 were co-transfected into the host cell line U2OS FLpIn (Malecki et al. Molecular and Cellular Biology 26, 4642 (2006)). Homologous recombination between the FRT sites in pcDNA5-FRT-Halo-SNAP-NLS and on the host cell chromosome, catalysed by the Flp recombinase expressed from pOG44, produced the U2OS FlpIn Halo-SNAP-NLS stably expressing cells.
# Live-Cell Confocal Imaging
# U2OS FlpIn Halo-SNAP-NLS expressing cells were grown in 96-well plate (Thermos Fisher) with optical bottom at 37° C. in a humidified 5% (vol/vol) CO2 environment. 50-500 nM probes and 2 μM verapamil were added and incubated for 1 h in DMEM media (Evrogen) containing 10% FBS. The cells were directly used to image without washing. Meanwhile, another group was imaged after being washed 2 times for 5 min with 1× phosphate buffered saline (PBS, pH 7.4) and DMEM supplemented with 10% FBS. Imaging was performed using Leica TCS SP8 confocal microscope. TMR- and Rhodamine B—, and Rhodamine 110-based probes were excited at 540 nm and the fluorescence signal was collected from 560-700 nm. Semi-Rhodamine-based probes were excited at 650 nm and the fluorescence signal was […] from 670-760 nm. Images were processed with Fiji (http://fiji.sc/wiki/index.php/Fiji) to obtain MIP (maximum intensity projections)
# [3] = ratio of fluorescence intensities at 580 nm in the presence and absence of SNAP-Halo-tag
# [4] = upon binding to SNAP-tag, in vitro
# [5] = upon binding to HaloTag, in vitro
Compound,Φ [1],ε^SDS [1],ε [1],Φ (SNAP-Halo-tag),ε^protein (SNAP-Halo-tag),λabs (SNAP-Halo-tag) [nm],λem (SNAP-Halo-tag) [nm],F/F0 (SNAP-Halo-tag; [3]),increase in absorbance at 555 nm (SNAP-Halo-tag; [4]) [fold],increase in intensity of fluorescence emission at 580 nm (SNAP-Halo-tag; [4]) [fold],Fnuc./Fcyt. [2],"nuclei to cytosol signal ratio (Fnuc/Fcyt) ([2]; no-wash live-cell imaging, U2OS cells, 250 nM for MaP555-SNAP and MaP700-Halo)",intracellular kinetics of labeling relative to control probe [2],increase in absorbance (SNAP-Halo-tag; [5]) [fold],increase in fluorescence intensity (SNAP-Halo-tag; [5]) [fold],"signal and background in no-wash live-cell imaging ([2]; U2OS cells, no washing)",F/F0 (SNAP-Halo-tag; ratio of fluorescence intensities at 635 nm in the presence and absence of SNAP-Halo-tag)
CN(C)c1ccc2c(c1)Oc1cc(N(C)C)ccc1C21c2cc(C(=O)NCc3ccc(COc4nc(N)nc5[nH]cnc45)cc3)ccc2C(=O)N1S(=O)(=O)N(C)C [compound 158],0.61,"88,000 M^−1cm^−1","3,500 M^−1cm^−1",0.46,"54,000 M^−1cm^−1",556,576,21 ± 3.2^e,15,21,15 ± 2.9^f,15,much faster,,,,
CN(C)c1ccc2c(c1)Oc1cc(N(C)C)ccc1C21c2cc(C(=O)NCc3ccc(COc4nc(N)nc5[nH]cnc45)cc3)ccc2C(=O)N1C#N [compound 152],0.58,"82,000 M^−1cm^−1","18,000 M^−1cm^−1",0.33,"68,000 M^−1cm^−1",558,580,18 ± 2.6^e,,,8.1 ± 0.9^f,,,,,,
CN(C)c1ccc2c(c1)Oc1cc(N(C)C)ccc1C21c2cc(C(=O)NCCOCCOCCCCCCCl)ccc2C(=O)N1S(N)(=O)=O [compound 157],0.65,"91,000 M^−1cm^−1","9,600 M^−1cm^−1",0.56,"87,000 M^−1cm^−1",558,580,19 ± 3.2^e,,,14 ± 0.7^f,,,,,,
"CN(C)c1ccc2c(-c3cc(C(=O)NCCOCCOCCCCCCCl)ccc3C(=O)O)c3ccc(=[N+](C)C)cc-3oc2c1 [compound 151, reference compound]",0.68,"87,000 M^−1cm^−1","58,000 M^−1cm^−1",0.51,"82,000 M^−1cm^−1",555,578,1.8 ± 0.1^e,,,9.4 ± 1.7^f,,,,,,
CN(C)c1ccc2c(c1)Oc1cc(N(C)C)ccc1C21c2cc(C(=O)NCCOCCOCCCCCCCl)ccc2C(=O)N1S(=O)(=O)N(C)C [compound 159],0.63,"92,000 M^−1cm^−1","5,200 M^−1cm^−1",0.54,"87,000 M^−1cm^−1",558,578,35 ± 2.3^e,,,18 ± 2.9^f,,about two-fold faster,16,35,much lower background signal,
CN(C)c1ccc2c(c1)C(C)(C)c1cc(N(C)C)ccc1C21c2cc(C(=O)NCCOCCOCCCCCCCl)ccc2C(=O)N1C#N [compound 161],0.72,"70,000^c M^−1cm^−1","1,500 M^−1cm^−1",0.53,"144,000 M^−1cm^−1",618,635,,,,19 ± 1.2^f,,,,,,112 ± 3.8^e
CN(C)c1ccc2c(c1)Oc1cc(N(C)C)ccc1C21c2cc(C(=O)NCc3ccc(COc4nc(N)nc5[nH]cnc45)cc3)ccc2C(=O)N1S(C)(=O)=O [compound 154],0.65,"86,000 M^−1cm^−1","15,000 M^−1cm^−1",0.38,"65,000 M^−1cm^−1",558,580,9.7 ± 0.1^e,,,7.9 ± 0.9^f,,,,,,
CN(C)c1ccc2c(c1)Oc1cc(N(C)C)ccc1C21c2cc(C(=O)NCc3ccc(COc4nc(N)nc5[nH]cnc45)cc3)ccc2C(=O)N1S(N)(=O)=O [compound 156],0.62,"89,000 M^−1cm^−1","9,800 M^−1cm^−1",0.46,"57,000 M^−1cm^−1",557,578,13 ± 2.4^e,,,9.8 ± 0.8^f,,,,,,
